{
  "source": "PubChem BioAssay AID1259409",
  "about": "(Chemical Carcinogenesis Research Information System (CCRIS), 2018)",
  "origin": "cited, not measured here",
  "tested_on": "rodent chemically induced tumor inhibition, incidence and multiplicity",
  "assay": "CCRIS tumor inhibitor studies",
  "data": [
    {"smiles": "O=c1c(-c2ccc(O)cc2)coc2cc(O)ccc12", "values": [
      {"measurement": "tumour outcome (control, treated, inhibition, significance)", "setting": "Carcinogen: 7,12-DIMETHYLBENZ[A]ANTHRACENE (57-97-6), Dose [Inhibitor]: 105 MG/KG DIET FOR 17 WKS (STUDY DURATION: 17 WKS), Route [Inhibitor]: DIET, Species: RAT, Strain/Sex: SPRAGUE-DAWLEY/FEMALE (20,18)/(20,19), Target Tissue: Type of Lesion: MAMMARY, Dose [Carcinogen]: 12.5 MG ONCE 1 WK AFTER START OF DIET (STUDY DURATION: 17 WKS)", "value": "95%, 85%, 11%, p=0.366"},
      {"measurement": "tumour outcome (control, treated, inhibition, significance)", "setting": "Carcinogen: N-METHYL-N-NITROSOUREA, 684-93-5, Dose [Inhibitor]: 0, 1 MG/30 G BW 1/4 WK FOR 25 WK BEGINNING 5 WK POST CARCINOGEN TREATMENT (STUDY DURATION: 30 WK), Route [Inhibitor]: SUBCUTANEOUS, Species: MOUSE, Strain/Sex: ICR/FEMALE, Target Tissue: Type of Lesion: UTERUS (LEFT): ADENOCARCINOMA, Dose [Carcinogen]: 0.1 MG/KG BW INJECTED INTO LEFT UTERINE TUBE ONCE", "value": "3/26 (11%), 0/14 (0%), 100%, not significant"},
      {"measurement": "tumour outcome (control, treated, inhibition, significance)", "setting": "Carcinogen: N-METHYL-N-NITROSOUREA, 684-93-5, Dose [Inhibitor]: 0, 1 MG/30 G BW 1/4 WK FOR 25 WK BEGINNING 5 WK POST CARCINOGEN TREATMENT (STUDY DURATION: 30 WK), Route [Inhibitor]: SUBCUTANEOUS, Species: MOUSE, Strain/Sex: ICR/FEMALE, Target Tissue: Type of Lesion: UTERUS (LEFT): ADENOCARCINOMA, Dose [Carcinogen]: 0.1 MG/KG BW INJECTED INTO LEFT UTERINE TUBE ONCE, Promoter: 17-BETA-ESTRADIOL, 50-28-2", "value": "8/24 (33%), 1/23 (4%), 87%, p<0.05"}
    ]},
    {"smiles": "COc1ccc(-c2cc(=S)ss2)cc1", "values": [
      {"measurement": "tumour outcome (control, treated, inhibition, significance)", "setting": "Carcinogen: 7,12-DIMETHYLBENZ[A]ANTHRACENE, 57-97-6, Dose [Inhibitor]: 0, 200 PPM IN DIET FOR DURATION OF STUDY BEGINNING 1 WK PRIOR TO CARCINOGEN DOSE (STUDY DURATION: 107 D), Route [Inhibitor]: ORAL, Species: RAT, Strain/Sex: SPRAGUE-DAWLEY/FEMALE, Target Tissue: Type of Lesion: MAMMARY GLAND: ADENOCARCINOMA, Dose [Carcinogen]: 12 MG ONCE, Promoter: NONE USED", "value": "80%, 75%, 6%, not significant"},
      {"measurement": "tumour outcome (control, treated, inhibition, significance)", "setting": "Carcinogen: 7,12-DIMETHYLBENZ[A]ANTHRACENE, 57-97-6, Dose [Inhibitor]: 0, 400 PPM IN DIET FOR DURATION OF STUDY BEGINNING 1 WK PRIOR TO CARCINOGEN DOSE (STUDY DURATION: 107 D), Route [Inhibitor]: ORAL, Species: RAT, Strain/Sex: SPRAGUE-DAWLEY/FEMALE, Target Tissue: Type of Lesion: MAMMARY GLAND: ADENOCARCINOMA, Dose [Carcinogen]: 12 MG ONCE, Promoter: NONE USED", "value": "80%, 85%, -6%, not significant"},
      {"measurement": "tumour outcome (control, treated, inhibition, significance)", "setting": "Carcinogen: AZOXYMETHANE, 25843-45-2, Dose [Inhibitor]: 0, 100 PPM IN DIET BEGINNING 2 WK PRIOR TO CARCINOGEN TREATMENT AND CONTINUING FOR DURATION OF STUDY (STUDY DURATION: 56, Route [Inhibitor]: ORAL, Species: RAT, Strain/Sex: F344/MALE, Target Tissue: Type of Lesion: COLON: INVASIVE ADENOCARCINOMA, Dose [Carcinogen]: 15 MG/KG 1/WK FOR 2 WK, Promoter: NONE USED", "value": "34%, 11%, 68%, p<0.05"},
      {"measurement": "tumour outcome (control, treated, inhibition, significance)", "setting": "Carcinogen: AZOXYMETHANE, 25843-45-2, Dose [Inhibitor]: 0, 100 PPM IN DIET BEGINNING 2 WK PRIOR TO CARCINOGEN TREATMENT AND CONTINUING FOR DURATION OF STUDY (STUDY DURATION: 56, Route [Inhibitor]: ORAL, Species: RAT, Strain/Sex: F344/MALE, Target Tissue: Type of Lesion: COLON: NONINVASIVE ADENOCARCINOMA, Dose [Carcinogen]: 15 MG/KG 1/WK FOR 2 WK, Promoter: NONE USED", "value": "53%, 47%, 11%, not significant"},
      {"measurement": "tumour outcome (control, treated, inhibition, significance)", "setting": "Carcinogen: AZOXYMETHANE, 25843-45-2, Dose [Inhibitor]: 0, 200 PPM IN DIET BEGINNING 2 WK PRIOR TO CARCINOGEN TREATMENT AND CONTINUING FOR DURATION OF STUDY (STUDY DURATION: 56, Route [Inhibitor]: ORAL, Species: RAT, Strain/Sex: F344/MALE, Target Tissue: Type of Lesion: COLON: INVASIVE ADENOCARCINOMA, Dose [Carcinogen]: 15 MG/KG 1/WK FOR 2 WK, Promoter: NONE USED", "value": "34%, 8%, 76%, p<0.01"},
      {"measurement": "tumour outcome (control, treated, inhibition, significance)", "setting": "Carcinogen: AZOXYMETHANE, 25843-45-2, Dose [Inhibitor]: 0, 200 PPM IN DIET BEGINNING 2 WK PRIOR TO CARCINOGEN TREATMENT AND CONTINUING FOR DURATION OF STUDY (STUDY DURATION: 56, Route [Inhibitor]: ORAL, Species: RAT, Strain/Sex: F344/MALE, Target Tissue: Type of Lesion: COLON: NONINVASIVE ADENOCARCINOMA, Dose [Carcinogen]: 15 MG/KG 1/WK FOR 2 WK, Promoter: NONE USED", "value": "53%, 30%, 43%, p<0.05"}
    ]},
    {"smiles": "CC1=C(/C=C/C(C)=C/C=C/C(C)=C\\C(=O)Nc2nn[nH]n2)C(C)(C)CCC1", "values": [
      {"measurement": "tumour outcome (control, treated, inhibition, significance)", "setting": "Carcinogen: N-BUTYL-N-(4-HYDROXYBUTYL)NITROSAMINE, 3817-11-6, Dose [Inhibitor]: 1.5 MMOL/KG DIET DAILY FOR 159 D STARTING 1 WK AFTER THE FINAL CARCINOGEN DOSE (STUDY DURATION: 216 D), Route [Inhibitor]: ORAL, Species: MOUSE, Strain/Sex: BDF/MALE, Target Tissue: Type of Lesion: URINARY BLADDER: TRANSITIONAL CELL CARCINOMA, Dose [Carcinogen]: 7.5 MG 1/WK FOR 8 WK, Promoter: NONE USED", "value": "29/98 (30%), 26/100 (26%), 13%, not significant"},
      {"measurement": "tumour outcome (control, treated, inhibition, significance)", "setting": "Carcinogen: N-BUTYL-N-(4-HYDROXYBUTYL)NITROSAMINE, 3817-11-6, Dose [Inhibitor]: 1.5 MMOL/KG/D IN DIET FOR 159 D STARTING 1 WK POST CARCINOGEN TREATMENT (STUDY DURATION: 216 D), Route [Inhibitor]: ORAL, Species: MOUSE, Strain/Sex: BDF/MALE, Target Tissue: Type of Lesion: URINARY BLADDER: TRANSITIONAL CELL CARCINOMA, Dose [Carcinogen]: 7.5 MG 1/WK FOR 8 WK, Promoter: NONE USED", "value": "29/98 (30%), 26/100 (26%), 13%, not significant"}
    ]}
  ]
}
